Results on five compounds are retold here after patent publication US4376780A, “Novel phenethylamine derivatives and bronchdilator containing the same” (Eisai Co., Ltd., priority 1976, dated 1983).

Usually LD50 stands for the dose at which mortality reaches 50%. Low values mean greater toxicity, high ones lower toxicity.

Series [1] is described as follows: Acute toxicity, mice, oral. The conditions noted are these: mouse, in vivo, 7 days observation. The text has this:
There was examined and observed the acute toxicity of the compounds to be examined for 7 days in the case of oral administration to mice.

Series [2] relates to air way resistance increased by histamine. Nature of the series: Inhibitory effect on the increasing reaction of the air-way resistance of histamine (Konzett-Rossler), anesthetized dogs. The format is in vivo. The procedure: Inhibitory Effect On The Increasing Reaction Of The Air-Way Resistance Of Histamine
(§1) Normally healthy dogs (body weights were 10-15 Kg) were used as subject animals, and anesthetized with sodium pentobarbital urethane. The compounds to be examined were injected into the femoral vein of the dog. The inhibitory effect on the increasing reaction of the histamine (10 μg/Kg were administered) to the air way resistance was determined by Konzett-Rossler method.

The test system of series [3] is blood pressure in the anesthetized dogs. Nature of the series: Effect on the blood pressure, anesthetized dogs. The format is in vivo. The method, then:
as §1
Effect On The Blood Pressure
Using the anesthetized dogs as same as pharmacological experiment 2, and injecting the compounds to be examined into the dogs from the femoral vein, the effect on the blood pressure was examined.

The test system of series [4] is asthmatous fit caused by the histamine spray. Briefly: Protecting effect against the dyspnea (asthmatous fit) caused by histamine spray, guinea pigs, oral. The series is classed as in vivo, guinea pigs of Hartley strain. The settings on record: for ED50: Cavia porcellus, read-out: ED 50, protecting effect on the asthmatous fit caused by the histamine spray; for protecting effect relative to the two controls, salbutamol and isoproterenol / durability action of the protecting effect / Ratio to isoproterenol (protecting effect): guinea pigs; for durability action of the protecting effect: in words; for Ratio to isoproterenol (protecting effect): isoproterenol = 100. The procedure: Protecting Effect Against The Dyspnea Caused By The Histamine
Male guinea pigs of Hartley strain were used. Aqueous solutions of the compounds to be examined were prepared in various concentrations, and administered orally to the guinea pigs, in a dose of 10 ml/Kg, respectively. After the oral administration, the guinea pigs were taken in a dome. Histamine solution in a concentration of 0.1% was sprayed through a nebulizer at a blow rate of 3500 ml/min. Two symptoms of hypoxia and fit of caughing were used as indices, and a probable appearing time of said two symptoms was watched and observed for 20 minutes from the start of the spraying.
The protecting effect was judged to be effective with the appearing time more than the double of the mean appearing time in 33 examples of the groups wherein physiological saline water was administered.

Series [5] concerns heart beat numbers of the anesthetized dogs. Briefly: Effect on the heart beat numbers, anesthetized dogs. The format is in vivo. The conditions noted are these: intravenous. The method, then: as §1
Using anesthetized dogs as same as the pharmacological experiment 2, and injecting the compounds to be examined into the dogs from the femoral vein thereof, the increasing actions to the heart beat numbers were examined.

In series [6] the test system is heart beat numbers of the guinea pig. Nature of the series: Effect on the heart beat numbers, conscious guinea pigs. The series is classed as in vivo. The settings on record: for increasing action to the heart beat numbers of the guinea pig: calculation from the product of the intensity action with the durability. The procedure:
Effect On The Heart Beat Numbers
(1) Conscious guinea pigs
The guinea pigs were used, in which electrodes of stainless steel were pierced and put in both forelegs of the respective guinea pigs under previous anesthesia (after 24 hours from this operation).
The guinea pigs were isolated one by one in observation boxes, recorded their electrocardiogram (the first induction) under quiet circumstances, and heart beat numbers were counted.
All compounds to be examined were administered orally. The recording and measuring were carried out three times before the administration and with the lapse of time until 180 minutes after the administration.
Calculation From The Product Of The Intensity Action With The Durability

Where [7] appears, read: oral, male Hartley guinea pigs, 0.1% histamine spray.

“Also recorded” adds a separate entry of the source. Structures can show the parent of a compound that is named as a salt. Where two headings read alike, the source gives them in different places. Where only a bound is given, the exact number is not on record here.

`COCc1cc(C(O)CNC(C)Cc2ccc(OC)cc2)ccc1O.O=C(O)/C=C/C(=O)O` (stereo not drawn) [Compound A, 1-(4-hydroxy-3-methoxymethylphenyl)-2-(α-methyl-4-methoxyphenethylamino)ethanol fumarate] returned an LD50 at 168 h in series [1] of 1050 mg/kg. In addition, the inhibition at 0.003 mg/kg in series [2] (Canis lupus familiaris, iv, read-out: inhibitory effect on the increasing reaction of the histamine to the air way resistance) was greater than 50%. Further, in series [2] (intravenous, anesthetized dogs, fumarate), the “inhibitory effect on air way resistance, comparison and durability in words” value is on record as “almost same as those of salbutamol”. Besides, the “dosage showing remarkable depression effect upon the blood pressure” value in series [3] (intravenous, anesthetized dogs) is on record as “more than 3 μg/Kg”. Also, the ED50 in series [4] (po) came to 0.39 mg/kg. Also, in series [4] (oral), the “protecting effect relative to the two controls, salbutamol and isoproterenol” value is on record as 5-7 times; the “durability action of the protecting effect” value (from here on “durability action”) is “extended obviously longer than those of the two controls”; the “Ratio to isoproterenol (protecting effect)” value (“Ratio to isoproterenol” below) is 744. Also, in series [5], the “dosage showing increasing action to the heart beat numbers” value was “more than 3 μg/Kg”; the “increasing action to the heart beat numbers, comparison in words” value was “weaker than that of Isoproterenol, and rather more intense than that of Salbutamol”. Moreover, the “increasing action to the heart beat numbers of the guinea pig” value (from here on “increasing action … of the guinea pig”) in series [6] (0.3 mg/Kg oral) is 36.8. Besides, the “increasing action … of the guinea pig” value in series [6] (3 mg/Kg oral) was 75.0. Moreover, the “increasing action … of the guinea pig” value in series [6] (30 mg/Kg oral) is 93.7. Further, the “increasing action to the heart beat numbers, in words” value in series [6] (oral, conscious guinea pigs, fumarate) was “distinct increasing action to the heart beat numbers with the dosage of 0.3 mg/Kg; also recorded: relatively same as that of Salbutamol and weaker than that of Isoproterenol”.

The compound `COCc1cc(C(O)CNC(C)Cc2ccc3c(c2)OCO3)ccc1O` (stereo not drawn) [Compound B, 1-(4-hydroxy-3-methoxymethylphenyl)-2-(α-methyl-3,4-methylenedioxyphenethylamine)ethanol oxalate] returned an LD50 at 168 h in series [1] of 1200 mg/kg. In addition, the ED50 in series [4] (setting [7]) came to 0.56 mg/kg. For the same compound, in series [4] (oral), the “protecting effect relative to the two controls, salbutamol and isoproterenol” value was 5-7 times; the “durability action” value was “extended obviously longer than those of the two controls”; the “Ratio to isoproterenol” value came to 518.

`COCc1cc(C(O)CNC(C)Cc2ccc(O)cc2)ccc1O.O=C(O)C(=O)O` (stereo not drawn) [Compound C, 1-(4-hydroxy-3-methoxymethylphenyl)-2-(α-methyl-4-hydroxyphenethylamino)ethanol oxalate] returned an LD50 at 168 h in series [1] of 1200 mg/kg. For the same compound, the ED50 in series [4] (po) is 0.36 mg/kg. For the same compound, in series [4] (oral), the “protecting effect relative to the two controls, salbutamol and isoproterenol” value is listed as 5-7 times; the “durability action” value was “extended obviously longer than those of the two controls”; the “Ratio to isoproterenol” value was determined as 806.

With `CC(C)NCC(O)c1ccc(O)c(O)c1` [Isoproterenol, L-isoproterenol hydrochloride, reference compound], in series [2] (Canis lupus familiaris, 10 min, 30 μg/Kg, intravenous, after 10 minutes, read-out: inhibitory effect on air way resistance 10 minutes after the administration), the inhibition at 0.03 mg/kg was found to be 10%. In addition, the minimal effective dose in series [2] (Canis lupus familiaris, intravenous, immediately after administration, read-out: dose with distinct inhibitory effect on air way resistance immediately after the administration) was roughly 0.001 mg/kg. Besides, the “depression effect on the blood pressure, in words” value in series [3] (dog, in vivo, iv) was “more intense depression effect than that of the compound A of this invention”. Moreover, in series [3] (dog, in vivo, iv), the “durability effect on the blood pressure, in words” value is “relatively short in durability effect”. Also, the ED50 in series [4] (setting [7]) turned out to be 2.9 mg/kg. Moreover, the “increasing action … of the guinea pig” value is on record as 87.3 in series [6] (0.3 mg/Kg oral), 86.9 in series [6] (3 mg/Kg oral) and 147.0 in series [6] (30 mg/Kg oral).

In the case of `CC(C)(C)NCC(O)c1ccc(O)c(CO)c1.Cl` (stereo not shown) [Salbutamol, 1-(4-hydroxy-3-hydroxymethylphenyl)-2-(t-butylamino)-ethanol hydrochloride, reference compound], in series [3] (dog, in vivo, iv), the “depression effect on the blood pressure, in words” value is “rather weaker tendency”. Also, the ED50 in series [4] (setting [7]) was 2.25 mg/kg.
